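Compound exposure: 48 hours, 5 concentrations, 96-well plates. GI50: concentration for 50% inhibition of growth. At the TGI there is no net growth.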
Tests used:
Experiment in all cases: inhibition of tumour cell growth, NCI panel, 48 h
[1] = system: ACHN renal
[2] = system: COLO 205 colon
[3] = system: HOP-62 NSCLC
[4] = system: KM12 colon
[5] = system: OVCAR-4 ovarian
[6] = system: OVCAR-8 ovarian
[7] = system: SK-MEL-5 melanoma
[8] = system: SNB-75 CNS
[9] = system: SW-620 colon
[10] = system: U251 CNS

With `C[C@@H]1O[C@@H](O[C@@H]2[C@@H](O)[C@H](OCCc3ccc(O)c(O)c3)O[C@H](CO)[C@H]2OC(=O)/C=C/c2ccc(O)c(O)c2)[C@H](O)[C@H](OC2OC[C@](O)(CO)[C@H]2O)[C@H]1O` (some centres undefined) the GI50 [1] was greater than 100 µM, the TGI [1] was greater than 100 µM and the GI50 [2] was greater than 100 µM. For the same compound, the TGI [2] was greater than 100 µM, the GI50 [3] was greater than 100 µM and the TGI [3] was greater than 100 µM. For the same compound, the GI50 [4] was greater than 100 µM, the TGI [4] was greater than 100 µM and the GI50 [5] was greater than 100 µM. The TGI [5] was greater than 100 µM, the GI50 [6] was 18.7 µM and the TGI [6] was 40 µM. The GI50 [7] was greater than 100 µM, the TGI [7] was greater than 100 µM and the GI50 [8] was greater than 100 µM. It also gave a TGI [8] greater than 100 µM, a GI50 [9] of 22.7 µM and a TGI [9] of 52.8 µM. It also gave a GI50 [10] greater than 100 µM and a TGI [10] greater than 100 µM.

For `N[C@H](COCc1ccccc1)c1ccccc1`, the TGI [1] was greater than 91.4 µM, the TGI [2] was 29.2 µM and the TGI [3] was greater than 74.5 µM. The TGI [4] was greater than 100 µM, the TGI [5] was greater than 100 µM and the TGI [6] was greater than 100 µM. It also gave a TGI [7] of 44.8 µM, a TGI [8] of 56 µM and a TGI [9] greater than 72.3 µM. It also gave a TGI [10] greater than 100 µM.

With `Oc1cccc2c1NCCC2` the GI50 [1] was 0.127 µM, the TGI [1] was greater than 70.7 µM and the GI50 [2] was 2.84 µM. For the same compound, the TGI [2] was 12.9 µM, the GI50 [3] was 0.146 µM and the TGI [3] was 42.5 µM. For the same compound, the GI50 [4] was 0.903 µM, the TGI [4] was greater than 100 µM and the GI50 [5] was 1.65 µM. For the same compound, the TGI [5] was greater than 100 µM, the GI50 [6] was 0.129 µM and the TGI [6] was 22.3 µM. The GI50 [7] was 0.109 µM, the TGI [7] was 1.85 µM and the GI50 [8] was 0.159 µM. The TGI [8] was greater than 100 µM, the GI50 [9] was 0.133 µM and the TGI [9] was greater than 100 µM. For the same compound, the GI50 [10] was 0.102 µM and the TGI [10] was greater than 100 µM.

`N/C(=N\OC(=O)c1ccccc1)C(Cc1ccccc1)C(=O)NOC(=O)c1ccccc1` (centres undefined) was tested, and the GI50 [1] was 1.66 µM, the TGI [1] was 3.58 µM and the GI50 [2] was 3.94 µM. It also gave a TGI [2] of 14.7 µM, a GI50 [3] of 1.37 µM and a TGI [3] of 2.83 µM. It also gave a GI50 [4] of 2.19 µM, a TGI [4] of 5.28 µM and a GI50 [5] of 4.38 µM. The TGI [5] was 27.3 µM, the GI50 [6] was 2.11 µM and the TGI [6] was 6.53 µM. It also gave a GI50 [7] of 2.72 µM, a TGI [7] of 9.03 µM and a GI50 [8] of 1.62 µM. The TGI [8] was 3.41 µM, the GI50 [9] was 3.02 µM and the TGI [9] was 13.8 µM. It also gave a GI50 [10] of 1.36 µM and a TGI [10] of 2.87 µM.

In the case of `N#CCCNc1nonc1-c1nc2ccccc2n1CC(=O)c1ccc(NC(=O)[C@@H](N)CCCCN)cc1`, the GI50 [1] is reported as 0.0583 µM, the TGI [1] is reported as greater than 100 µM and the GI50 [2] is reported as 0.0273 µM. For the same compound, the TGI [2] was 0.0709 µM, the GI50 [3] was 0.0562 µM and the TGI [3] was greater than 100 µM. For the same compound, the GI50 [4] was 0.0279 µM, the GI50 [5] was 0.0436 µM and the TGI [5] was greater than 100 µM. The GI50 [6] was 0.0554 µM, the TGI [6] was greater than 100 µM and the GI50 [7] was 0.03 µM. It also gave a TGI [7] of 0.197 µM, a GI50 [8] of 0.0106 µM and a TGI [8] greater than 100 µM. For the same compound, the GI50 [9] was 0.0443 µM, the TGI [9] was greater than 100 µM and the GI50 [10] was 0.0445 µM. The TGI [10] was greater than 100 µM.

With `COc1ccc(OC(=O)CC2Cc3cc(OC)c(OC)c(OC)c3-c3ccc(SC)c(=O)cc32)cc1` (centres undefined) the TGI [1] was greater than 57.7 µM, the TGI [2] was greater than 100 µM and the TGI [3] was greater than 39 µM. It also gave a TGI [4] of 19.6 µM, a TGI [5] greater than 100 µM and a TGI [6] greater than 37.1 µM. The TGI [7] was 13 µM, the TGI [8] was greater than 100 µM and the TGI [9] was greater than 39.7 µM. The TGI [10] was greater than 100 µM.

With `N#CCN1C(=O)c2cc([N+](=O)[O-])cc3cc([N+](=O)[O-])cc(c23)C1=O` the TGI [1] was 26.3 µM, the TGI [2] was 36.6 µM and the TGI [3] was 41.9 µM. The TGI [4] was 28 µM, the TGI [5] was 28.4 µM and the TGI [6] was 56.4 µM. It also gave a TGI [7] of 29.8 µM, a TGI [8] of 84.8 µM and a TGI [9] of 20.3 µM. The TGI [10] was greater than 55.6 µM.

`Cc1cc(C)c(C2CNCc3cc4c(cc32)CNCC4c2c(C)cc(C)cc2C)c(C)c1` (centres undefined) was tested, and the GI50 [1] was 3.76 µg/mL, the TGI [1] was 13.4 µg/mL and the GI50 [2] was 2.63 µg/mL. For the same compound, the TGI [2] was 7.49 µg/mL, the GI50 [3] was 8.62 µg/mL and the TGI [3] was 22.3 µg/mL. The GI50 [4] was 2.6 µg/mL, the TGI [4] was 6.74 µg/mL and the GI50 [5] was 2.48 µg/mL. It also gave a TGI [5] of 6.43 µg/mL, a GI50 [6] of 2 µg/mL and a TGI [6] of 4.18 µg/mL. It also gave a GI50 [7] of 2 µg/mL, a TGI [7] of 3.96 µg/mL and a GI50 [8] of 0.526 µg/mL. The TGI [8] was 1.92 µg/mL, the GI50 [9] was 3.11 µg/mL and the TGI [9] was 11.5 µg/mL. For the same compound, the GI50 [10] was 2.54 µg/mL and the TGI [10] was 5.59 µg/mL.

`Cc1cc(=O)c2c(O)cc3c(c2o1)CC=C(COC1OC(COC2OC(CO)C(O)C(O)C2O)C(O)C(O)C1O)CO3` (centres undefined) showed a TGI [1] greater than 100 µM, a TGI [2] greater than 100 µM and a TGI [3] greater than 100 µM. It also gave a TGI [4] greater than 100 µM, a TGI [5] greater than 100 µM and a TGI [6] greater than 100 µM. For the same compound, the TGI [7] was greater than 100 µM, the TGI [8] was greater than 100 µM and the TGI [9] was greater than 100 µM. It also gave a TGI [10] greater than 100 µM.

`COc1ccc2c(c1)C(=O)c1c-2c(OCCN(C)C)nc2ccccc12` showed a GI50 [1] of 1.62 µM, a TGI [1] of 5.47 µM and a GI50 [2] of 1.83 µM. For the same compound, the TGI [2] was 10.1 µM, the GI50 [3] was 2.29 µM and the TGI [3] was 12.7 µM. The GI50 [4] was 1.19 µM, the TGI [4] was 3.28 µM and the GI50 [5] was 3.03 µM. The TGI [5] was 10.8 µM, the GI50 [6] was 2.54 µM and the TGI [6] was 11.9 µM. For the same compound, the GI50 [7] was 4.6 µM, the TGI [7] was 16.6 µM and the GI50 [8] was 7.62 µM. For the same compound, the TGI [8] was 21.6 µM, the GI50 [9] was 0.823 µM and the TGI [9] was 3.26 µM. The GI50 [10] was 2.28 µM and the TGI [10] was 9.87 µM.

In the case of `Oc1c(-c2cc(C(F)(F)F)[nH]n2)cc(Cl)c(OCc2ccc(Cl)cc2)c1-c1ccc(Cl)c(C(F)(F)F)c1`, the GI50 [1] is reported as 0.593 µM, the TGI [1] is reported as 4.86 µM and the GI50 [2] is reported as 0.867 µM. For the same compound, the TGI [2] was 1.79 µM, the GI50 [3] was 0.766 µM and the TGI [3] was 3.04 µM. It also gave a GI50 [4] of 0.862 µM, a TGI [4] of 2.66 µM and a GI50 [5] of 1.31 µM. The TGI [5] was 7.41 µM, the GI50 [6] was 0.192 µM and the TGI [6] was 6.45 µM. It also gave a GI50 [7] of 0.265 µM, a TGI [7] of 0.941 µM and a GI50 [8] of 0.496 µM. The TGI [8] was 1.74 µM, the GI50 [9] was 0.298 µM and the TGI [9] was 4.15 µM. The GI50 [10] was 0.5 µM and the TGI [10] was 5.76 µM.

With `COc1ccc(Nc2ccnc(N3CCN(c4ccnc5cc(Cl)ccc45)CC3)n2)cc1` the GI50 [1] was 0.955 µM, the TGI [1] was greater than 24.5 µM and the GI50 [2] was 1.38 µM. For the same compound, the TGI [2] was 3.8 µM, the GI50 [3] was 1.27 µM and the TGI [3] was greater than 29 µM. The GI50 [4] was 1.01 µM, the TGI [4] was 4.16 µM and the GI50 [5] was 1.34 µM. It also gave a TGI [5] greater than 100 µM, a GI50 [6] of 1.68 µM and a TGI [6] greater than 21.7 µM. It also gave a GI50 [7] of 0.579 µM, a TGI [7] of 1.87 µM and a GI50 [8] of 1.4 µM. For the same compound, the TGI [8] was 4.82 µM, the GI50 [9] was 0.739 µM and the TGI [9] was greater than 73.1 µM. The GI50 [10] was 1.17 µM and the TGI [10] was 11.5 µM.

In the case of `Cc1[nH]nc(-c2ccon2)c1N=O`, the TGI [1] is reported as 28.4 µM, the TGI [2] is reported as 49.4 µM and the TGI [3] is reported as 41.9 µM. The TGI [4] was 38.4 µM, the TGI [5] was 37.6 µM and the TGI [6] was 31.6 µM. It also gave a TGI [7] of 34.3 µM, a TGI [8] greater than 100 µM and a TGI [9] of 49.1 µM. The TGI [10] was 32.8 µM.

Work on `CC(C)C[C@H](NC(=O)CCn1ccc2ccccc2c1=O)B(O)O` yielded a GI50 [1] of 1.75 µM, a TGI [1] greater than 100 µM and a GI50 [2] of 5.06 µM. The TGI [2] was greater than 100 µM, the GI50 [3] was 4.51 µM and the TGI [3] was 22.1 µM. For the same compound, the GI50 [4] was 7.51 µM, the TGI [4] was 29.8 µM and the GI50 [5] was 17 µM. It also gave a TGI [5] greater than 100 µM, a GI50 [6] of 15.3 µM and a TGI [6] greater than 100 µM. For the same compound, the GI50 [7] was 4.3 µM, the TGI [7] was 19 µM and the GI50 [8] was 2.94 µM. The TGI [8] was 15.9 µM, the GI50 [9] was 3 µM and the TGI [9] was 12 µM. For the same compound, the GI50 [10] was 4.23 µM and the TGI [10] was greater than 100 µM.
